How the values were obtained:
Assay type in all cases: in vivo
cats = test: amphetamine-like stereotyped reactions in cats (amphetamine-like CNS stimulant activity); conditions: for amphetamine-like stereotyped reactions: cats, comparative tests at similar dosage levels
rats = test: teratogenicity in rats; conditions: similar dosage levels
rabbits = test: teratogenicity in rabbits; conditions: similar dosage levels
[1] = tested on: reserpine-induced hypothermia; test: reversal of reserpine-induced hypothermia test in mice (antireserpine activity); conditions: Mus musculus, Shadbolt et al., read-out: ED50 (median effective dose)
Experimental: A test to evaluate this property was carried out with the compounds of formula I (R = H or CH3 O). The test was carried out in mice as described by Shadbolt et al. in J. Med. Chem. vol. 14 p.837 (1971), and the following results were obtained.

Structure (SMILES)	amphetamine-like CNS stimulant activity (cats; as shown by stereotyped reactions in cats)	amphetamine-like stereotyped reactions (cats)	teratogenicity (rats)	teratogenicity (rabbits)	ED50 [1] [mg/kg]
CCN(CC)CCOc1ccc(Nc2nc3ccccc3s2)cc1 [2-[4-(2-diethylaminoethoxy)anilino]benzothiazole]	undesirably high level of amphetamine-like CNS stimulant activity	produces amphetaminelike stereotyped reactions	–	–	–
c1ccc2sc(Nc3ccc(OCCN4CCCCC4)cc3)nc2c1 [2-[4-(2-piperidin-1-ylethoxy)anilino]benzothiazole]	–	causes amphetamine-like stereotyped reactions	–	–	–
c1ccc2oc(Nc3ccc(OCCN4CCCC4)cc3)nc2c1 [2-[4-(2-pyrrolidin-1-ylethoxy)anilino]benzoxazole]	–	–	markedly teratogenic	markedly teratogenic	–
c1ccc2sc(Nc3ccc(OCCN4CCCC4)cc3)nc2c1 [compound I, R=hydrogen, 2-[4-(2-pyrrolidin-1-ylethoxy)anilino]benzothiazole]	–	–	no evidence of teratogenicity	–	3.7
COc1ccc2sc(Nc3ccc(OCCN4CCCC4)cc3)nc2c1 [compound I, R=methoxy, 5-methoxy-2-[4-(2-pyrrolidin-1-ylethoxy)anilino]benzothiazole]	–	–	no evidence of teratogenicity	no evidence of teratogenicity	3.1

Reference: US3957999A, “Anilinobenzothiazoles as antidepressants” (The Boots Company, priority 1974, dated 1976)
